Laboratory results from PMC11399263 (Nature Communications, 2024).

Tests used:
[1] = target: T1, MefHα/DmgHβ (Aminobacter niigataensis, UniProt A0AAX7FLU4); assay: guanylurea production by LC-MS; format: biochemical; conditions: 2 mM substrate, Tris-HCl pH 8, 30 °C
T1 construct: gene N7E70_023840; subunit-swapped heteromer of full-length subunits from two strains, co-expressed in E. coli; with Dimethylguanidine hydrolase subunit beta
T1 sequence (A0AAX7FLU4 20-376): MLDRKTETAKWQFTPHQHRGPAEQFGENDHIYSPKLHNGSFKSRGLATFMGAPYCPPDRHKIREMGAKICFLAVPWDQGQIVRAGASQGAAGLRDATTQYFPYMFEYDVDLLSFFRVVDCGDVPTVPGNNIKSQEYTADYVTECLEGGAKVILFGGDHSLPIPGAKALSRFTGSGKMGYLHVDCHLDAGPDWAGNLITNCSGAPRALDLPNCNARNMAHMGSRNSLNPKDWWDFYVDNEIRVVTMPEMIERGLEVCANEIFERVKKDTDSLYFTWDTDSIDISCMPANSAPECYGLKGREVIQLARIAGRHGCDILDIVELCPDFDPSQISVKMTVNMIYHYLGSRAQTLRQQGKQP
T1 sequence (A0ABR6L539 1-348 partner): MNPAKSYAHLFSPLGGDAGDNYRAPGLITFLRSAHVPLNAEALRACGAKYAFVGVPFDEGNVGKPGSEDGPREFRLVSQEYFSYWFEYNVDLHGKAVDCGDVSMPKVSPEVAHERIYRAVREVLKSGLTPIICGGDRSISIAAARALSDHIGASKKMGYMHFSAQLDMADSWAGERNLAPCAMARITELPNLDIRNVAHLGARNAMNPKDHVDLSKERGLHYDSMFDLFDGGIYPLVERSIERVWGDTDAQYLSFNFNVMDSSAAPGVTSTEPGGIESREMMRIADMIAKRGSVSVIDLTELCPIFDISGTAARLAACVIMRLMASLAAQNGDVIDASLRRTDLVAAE

[2] = target: 6x His-tagged metformin hydrolase α subunit of Aminobacter niigataensis MD1 (Aminobacter niigataensis MD1); assay: crystal structure; 6x His-AnMefH complex, 13.3 mg/ml; crystals from 20% PEG 3350, 100 mM Bis Tris Propane-HCl pH 6.5, 200 mM NaF, 18 °C; soaked with urea

| stoichiometry N (MefHβ per MefHα) [2] | Compound | guanylurea production by LC-MS [1] |
| --- | --- | --- |
| – | CN(C)C(=N)NC(=N)N [metformin] | MefHα/DmgHβ preferentially hydrolyzed metformin |
| 2 | metformin hydrolase β subunit of Aminobacter niigataensis MD1, untagged (natural protein) | – |
